Values quoted from earlier work, collected in patent publication US11285184B2, “Cannabidiol alkaline composition” (CHIROSYN DISCOVERY TECHNOLOGIES INC., priority 2018, dated 2022).

Details: CBD dissolved in sulfuric acid/acetic acid

C=C(C)[C@@H]1CCC(C)=C[C@H]1c1c(O)cc(CCCCC)cc1O [CBD, 2-[1R-3-methyl-6R-(1-methylethenyl)-2-cyclohexen-1-yl]-5-pentyl-1,3-benzenediol]
Δ-8-THC formed from CBD: 2%
Δ-9-THC formed from CBD: 52%
